The source of these data is patent publication US20260144783A1, “COMPOSITION FOR PREVENTING OR TREATING PERIPHERAL NEUROPATHY, CONTAINING ISOQUINOLINE DERIVATIVE AS ACTIVE INGREDIENT” (ALTMEDICAL CO., LTD., priority 2022, published 2026).

The test system of data set [1] is BEAS-2B cell line, in which PINK1 was knocked down (shPINK1). As to the kind of experiment: mitophagy activity in PINK1 knockdown cell line (FACS). As to conditions: CCCP 10 μM or CD1-012 15 μM, 18 hours. In kind it is cell-based, human. The method, then: In this example, it was confirmed whether the mitophagy activation function of the isoquinoline derivative according to the present invention is dependent on the PINK1-Parkin pathway. To this end, after a BEAS-2B cell line, in which PINK1 was knocked down using short hairpin RNA (shRNA), was treated with CCCP (10 μM) of Comparative Example 1 or CD1-012 (15 μM) for 18 hours, the mitophagy activity of each sample was analyzed using flow cytometry (FACS).

The next data set relates to BEAS-2B cell line. Put plainly: mitophagy activity, mt-Keima fluorescent protein (FACS, confocal microscope, mito-YFP). In kind it is cell-based, human. The method, then:
To analyze the mitophagy-promoting activity effect of the CD1-012 synthesized in the Example 1, the BEAS-2B cell line, which is a human normal lung cell line, was induced to express the mt-Keima fluorescent protein. Following this, the CD1-012 (15 μM) and the compound of Comparative Example 1, CCCP (10 μM), were treated for 24 hours. After the treatment, the mitophagy activity of each sample was measured, and the results were represented in FIGS. 1A to IC.
Specifically, FIG. 1A represents the analysis results using flow cytometry (FACS) (treatment of CD1-012 at 15 µM for 24 hours), FIG. 1B represents the analysis results using a confocal microscope (treatment of CD1-012 at 15 μM for 18 hours), and FIG. 1C represents the measurement results of the quantitative changes in the mitochondria using a fluorescent protein, mito-YFP, which includes a targeting sequence to transport protein to the mitochondria (treatment of CD1-012 at 20 μM for 24 hours).
It was confirmed whether CD1-012 synthesized in Example 1 promotes mitophagy activity in a concentration- and time-dependent manner. To this end, the CD1-012 was treated at various concentrations or at a fixed concentration (15 μM) for different treatment durations in the BEAS-2B cell line expressing mt-Keima, and mitophagy activity was measured using a flow cytometer.
It was confirmed whether CD1-012 synthesized in Example 1 specifically increases only mitophagy activity. To this end, the BEAS-2B cell line expressing mt-Keima was treated with CD1-012 (15 μM) or Comparative Example 1 (CCCP, 10 μM) for 18 hours, and mitophagy activity was analyzed using a confocal microscope. Additionally, to measure autophagy activity, the BEAS-2B cell line expressing Keima fluorescent protein was incubated in Hanks' balanced salt solution (HBSS) for 3 hours to induce a starvation condition (starv.), and the results were compared with samples treated with CD1-012 (15 μM) for 18 hours using a confocal microscope.
To this end, the human normal lung cell line BEAS-2B, expressing mt-Keima fluorescent protein, was treated with CD1-012, Comparative Example 2 (palmatine), or Comparative Example 3 (berberine) at various concentrations, and the mitophagy-inducing activity of each sample was compared.

In data set [2] the test system is chemotherapy-induced peripheral neuropathy mouse model. Put plainly: nerve distribution in the footpad (IENFs), peripheral neuropathy mouse model. The conditions noted are these: mice treated with CD1-012 and paclitaxel, FIG. 12B. Format: in vivo.
For data set [3], the system named is mitochondrial reactive oxygen species (ROS). As to the kind of experiment: MitoSOX assay. Format: cell-based. The conditions noted are these: CD1-012 10 μM or 15 μM, CCCP 10 μM, 24 hours. The method, then:
It was confirmed whether the isoquinoline derivative according to the present invention induces mitochondrial dysfunction, similar to CCCP. To this end, the CD1-012 (10 μM or 15 μM) and CCCP (10 μM) were treated for 24 hours, and the mitochondrial membrane potential and mitochondrial reactive oxygen species (ROS) levels in each sample were analyzed. Mitochondrial membrane potential was analyzed using the TMRM (tetramethylrhodamine methyl ester) assay, and mitochondrial ROS levels were analyzed using the MitoSOX assay.

Data set [4] deals with chemotherapy-induced peripheral neuropathy mouse model. As to the kind of experiment: vonfrey hair test, peripheral neuropathy mouse model. As to conditions: mice, CD1-012 10 mg/kg or 20 mg/kg co-administered with paclitaxel, FIG. 12A. In kind it is in vivo. The method, then:
To more clearly verify the therapeutic effect of the isoquinoline derivative of the present invention on peripheral neuropathy, particularly chemotherapy-induced peripheral neuropathy, experiments were conducted using a peripheral neuropathy mouse model. Specifically, peripheral neuropathy was induced in mice by administration of a chemotherapeutic agent (paclitaxel), and CD1-012 was co-administered at a dose of 10 mg/kg or 20 mg/kg. Sensitivity to pain was then analyzed using the vonfrey hair test.

Data set [5] deals with Drosophila expressing shRap9 in C4da sensory neurons. As to the kind of experiment: heat probe assay, Rap9 suppressed. As to conditions: Rap9 expression suppressed; paclitaxel 20 μM and CD1-012 1 mM. Format: in vivo. Here is the method: Subsequently, to understand the molecular mechanism underlying the therapeutic effect of CD1-012 on chemotherapy-induced peripheral neuropathy, the therapeutic effect of CD1-012 was examined after suppressing the expression of ULK1 or Rap9, which are essential genes in the recently identified alternative mitophagy pathway. To this end, a heat probe assay was performed using a 40° C. thermal probe after co-treating paclitaxel (20 μM) and CD1-012 (1 mM) in Drosophila expressing shULK1 or shRap9 in C4da sensory neurons, as well as in control Drosophila (wild-type). As a result, in the control group, the peripheral neuropathy symptoms (reduction in withdrawal latency) induced by paclitaxel were recovered by CD1-012 treatment.

Data set [6] concerns Drosophila expressing shATG7 in C4da sensory neurons. Put plainly: heat probe assay, ATG7 suppressed. In kind it is in vivo. As to conditions: ATG7 expression suppressed; paclitaxel 20 μM and CD1-012 1 mM, 40° C. probe. Here is the method: In this example, an experiment was conducted to verify the therapeutic mechanism of the compound according to the present invention on peripheral neuropathy, particularly chemotherapy-induced peripheral neuropathy. To this end, the therapeutic effect of CD1-012 on peripheral neuropathy was evaluated using animal models in which the expression of ATG5 or ATG7, essential genes in the canonical mitophagy pathway, the most representative mitophagy regulatory pathway, was suppressed. Specifically, paclitaxel (20 μM) and CD1-012 (1 mM) were co-administered to Drosophila expressing shATG7 or shATG5 in C4da sensory neurons, as well as to control flies (wild-type), and a heat probe assay was conducted using a 40° C. thermal probe.

Where [7] appears, read: 15 μM, BEAS-2B mt-Keima, FIG. 3B.

The structures appear in SMILES notation.

As to `Oc1cc2c(cc1O)-c1cc3ccc(O)c(O)c3c[n+]1CC2` [CD1-012, 2,3,9,10-tetrahydroxy-5,6-dihydroisoquinolino[3,2-a]isoquinolin-7-ium bromide], the “mitophagy activation in PINK1 knockdown cell line (shPINK1) compared to control” value in data set [1] is recorded as “did not show a significant difference”. Also, the “mitophagy activity compared with CCCP-treated sample (FIG. 1A, FACS)” value in the data set on BEAS-2B cell line (15 μM 24 h, CCCP 10 μM) is “increased as significantly as”. In the data set on BEAS-2B cell line (setting [7]), the “treatment time after which mitophagy activity began to significantly increase” value was determined as 3 h and the “treatment time at which mitophagy activity reached its maximum level” value worked out at 18 h. For the same compound, in the data set on BEAS-2B cell line (BEAS-2B mt-Keima, FIG. 5), the “concentration at which mitophagy activity reached its maximum (comparable level)” value worked out at 10 µM, the “mitophagy-inducing activity relative to berberine” value is given as “approximately 8 times” and the “mitophagy-inducing activity relative to palmatine” value was “approximately 40 times”. In addition, in the data set with BEAS-2B cell line (BEAS-2B mt-Keima, flow cytometer, FIG. 3A), the “concentration at which mitophagy activity began to significantly increase compared to untreated control” value was at least 7.5 µM. Further, the “mitophagy activity compared to the untreated control group (Con)” value in the data set with BEAS-2B cell line (BEAS-2B mt-Keima, CD1-012 15 μM 24 h FACS, 15 μM 18 h confocal, 20 μM 24 h mito-YFP) is listed as “significant increase”. In addition, the “mitophagy activity, concentration dependence” value in the data set with BEAS-2B cell line (up to the maximum treatment concentration of 17.5 μM, FIG. 3A) is listed as “continued to increase in a concentration-dependent manner”. Moreover, the “number of peripheral nerves (intraepidermal nerve fibers: IENFs) in the footpad” value in data set [2] was “recovery to normal levels”. Further, the “mitochondrial ROS levels” value in data set [3] was “no increase”. In addition, the “hyperalgesic symptoms (sensitivity to pain)” value in data set [4] was “significant improvement”. Further, the “therapeutic effect on paclitaxel-induced peripheral neuropathy (withdrawal latency)” value in data set [5] is “completely abolished”. For the same compound, the “therapeutic effect on chemotherapy-induced peripheral neuropathy (withdrawal latency)” value in data set [6] is reported as “similarly observed”.
